According to PubChem BioAssay (NCI):
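Step 1: Grow cells in 96-well plates. Step 2: Expose to compound for 48 hours at 5 concentrations. Step 3: Interpolate endpoints linearly; if unreached, use highest concentration. At the TGI there is no net growth.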

Tests used:
Assay in all cases: inhibition of tumour cell growth, NCI panel, 48 h
RPMI-8226 leukemia = test system: RPMI-8226 leukemia
SN12C renal = test system: SN12C renal
K-562 leukemia = test system: K-562 leukemia
CCRF-CEM leukemia = test system: CCRF-CEM leukemia
DLD-1 colon = test system: DLD-1 colon
SK-MEL-28 melanoma = test system: SK-MEL-28 melanoma
UACC-62 melanoma = test system: UACC-62 melanoma
M14 melanoma = test system: M14 melanoma
SK-MEL-2 melanoma = test system: SK-MEL-2 melanoma
NCI-H226 lung = test system: NCI-H226 lung
HOP-18 NSCLC = test system: HOP-18 NSCLC
MALME-3M melanoma = test system: MALME-3M melanoma
HOP-62 NSCLC = test system: HOP-62 NSCLC
SF-539 CNS = test system: SF-539 CNS
UACC-257 melanoma = test system: UACC-257 melanoma
HL-60(TB) leukemia = test system: HL-60(TB) leukemia
UO-31 renal = test system: UO-31 renal
786-0 renal = test system: 786-0 renal
KM12 colon = test system: KM12 colon
U251 CNS = test system: U251 CNS
IGROV1 ovarian = test system: IGROV1 ovarian
HCC-2998 colon = test system: HCC-2998 colon
HOP-92 NSCLC = test system: HOP-92 NSCLC
OVCAR-8 ovarian = test system: OVCAR-8 ovarian
NCI-H522 lung = test system: NCI-H522 lung
SK-MEL-5 melanoma = test system: SK-MEL-5 melanoma
LXFL 529 NSCLC = test system: LXFL 529 NSCLC
MOLT-4 leukemia = test system: MOLT-4 leukemia
SF-268 CNS = test system: SF-268 CNS
LOX IMVI melanoma = test system: LOX IMVI melanoma
A549 NSCLC = test system: A549 NSCLC
CAKI-1 renal = test system: CAKI-1 renal
NCI-H460 lung = test system: NCI-H460 lung
OVCAR-5 ovarian = test system: OVCAR-5 ovarian
HCT-116 colon = test system: HCT-116 colon
RXF-631 renal = test system: RXF-631 renal
M19-MEL melanoma = test system: M19-MEL melanoma
DMS 114 small cell lung = test system: DMS 114 small cell lung
ACHN renal = test system: ACHN renal
SF-295 CNS = test system: SF-295 CNS
OVCAR-3 ovarian = test system: OVCAR-3 ovarian
HT29 colon = test system: HT29 colon
OVCAR-4 ovarian = test system: OVCAR-4 ovarian
NCI-H23 lung = test system: NCI-H23 lung
SNB-75 CNS = test system: SNB-75 CNS
SW-620 colon = test system: SW-620 colon
SNB-78 CNS = test system: SNB-78 CNS
A498 renal = test system: A498 renal
COLO 205 colon = test system: COLO 205 colon
SK-OV-3 ovarian = test system: SK-OV-3 ovarian
HCT-15 colon = test system: HCT-15 colon
SNB-19 CNS = test system: SNB-19 CNS
SR leukemia = test system: SR leukemia
DMS 273 small cell lung = test system: DMS 273 small cell lung
XF 498 CNS = test system: XF 498 CNS
TK-10 renal = test system: TK-10 renal
EKVX NSCLC = test system: EKVX NSCLC
RXF 393 renal = test system: RXF 393 renal
KM20L2 colon = test system: KM20L2 colon

## CCCCCCC(O)C/C=C/CCCCCC/C(C(=O)OC)=C(/O)C(=O)OCC (stereo unspecified)
RPMI-8226 leukemia
  TGI: > 100 µM
SN12C renal
  TGI: > 100 µM
K-562 leukemia
  TGI: > 100 µM
CCRF-CEM leukemia
  TGI: > 100 µM
DLD-1 colon
  TGI: > 100 µM
SK-MEL-28 melanoma
  TGI: > 100 µM
UACC-62 melanoma
  TGI: > 100 µM
M14 melanoma
  TGI: > 100 µM
SK-MEL-2 melanoma
  TGI: > 100 µM
NCI-H226 lung
  TGI: > 100 µM
HOP-18 NSCLC
  TGI: > 100 µM
MALME-3M melanoma
  TGI: > 100 µM
HOP-62 NSCLC
  TGI: > 100 µM
SF-539 CNS
  TGI: > 100 µM
UACC-257 melanoma
  TGI: > 100 µM
HL-60(TB) leukemia
  TGI: > 100 µM
UO-31 renal
  TGI: > 100 µM
786-0 renal
  TGI: > 100 µM
KM12 colon
  TGI: > 100 µM
U251 CNS
  TGI: > 100 µM
IGROV1 ovarian
  TGI: > 100 µM
HCC-2998 colon
  TGI: > 100 µM
HOP-92 NSCLC
  TGI: > 100 µM
OVCAR-8 ovarian
  TGI: > 100 µM
NCI-H522 lung
  TGI: > 100 µM
SK-MEL-5 melanoma
  TGI: > 100 µM
LXFL 529 NSCLC
  TGI: > 100 µM
MOLT-4 leukemia
  TGI: > 100 µM
SF-268 CNS
  TGI: > 100 µM
LOX IMVI melanoma
  TGI: > 100 µM
A549 NSCLC
  TGI: > 100 µM
CAKI-1 renal
  TGI: > 100 µM
NCI-H460 lung
  TGI: > 100 µM
OVCAR-5 ovarian
  TGI: > 100 µM
HCT-116 colon
  TGI: > 100 µM
RXF-631 renal
  TGI: > 100 µM
M19-MEL melanoma
  TGI: > 100 µM
DMS 114 small cell lung
  TGI: > 100 µM
ACHN renal
  TGI: > 100 µM
SF-295 CNS
  TGI: > 100 µM
OVCAR-3 ovarian
  TGI: > 100 µM
HT29 colon
  TGI: > 100 µM
OVCAR-4 ovarian
  TGI: > 100 µM
NCI-H23 lung
  TGI: > 100 µM
SNB-75 CNS
  TGI: > 100 µM
SW-620 colon
  TGI: > 100 µM
SNB-78 CNS
  TGI: > 100 µM
A498 renal
  TGI: > 100 µM
COLO 205 colon
  TGI: > 100 µM
SK-OV-3 ovarian
  TGI: > 100 µM
HCT-15 colon
  TGI: > 100 µM
SNB-19 CNS
  TGI: > 100 µM
SR leukemia
  TGI: > 100 µM
DMS 273 small cell lung
  TGI: > 100 µM
XF 498 CNS
  TGI: > 100 µM
TK-10 renal
  TGI: > 100 µM
EKVX NSCLC
  TGI: > 100 µM

## O=C1C(c2ccc(Cl)cc2)=[N+]([O-])c2ccccc21
RPMI-8226 leukemia
  TGI: > 100 µM
SN12C renal
  TGI: 32.4 µM
K-562 leukemia
  TGI: 68.5 µM
CCRF-CEM leukemia
  TGI: 25.5 µM
DLD-1 colon
  TGI: 30.1 µM
SK-MEL-28 melanoma
  TGI: 28.5 µM
RXF 393 renal
  TGI: 23 µM
UACC-62 melanoma
  TGI: 32.2 µM
M14 melanoma
  TGI: 27.7 µM
SK-MEL-2 melanoma
  TGI: 77.3 µM
NCI-H226 lung
  TGI: 47 µM
HOP-18 NSCLC
  TGI: 58.9 µM
MALME-3M melanoma
  TGI: 31.8 µM
HOP-62 NSCLC
  TGI: 78.5 µM
SF-539 CNS
  TGI: 36 µM
UACC-257 melanoma
  TGI: 30.3 µM
HL-60(TB) leukemia
  TGI: 24 µM
UO-31 renal
  TGI: > 100 µM
KM20L2 colon
  TGI: 52.1 µM
786-0 renal
  TGI: 30.7 µM
KM12 colon
  TGI: 29.7 µM
U251 CNS
  TGI: 31.5 µM
IGROV1 ovarian
  TGI: 33.9 µM
HCC-2998 colon
  TGI: > 100 µM
OVCAR-8 ovarian
  TGI: 25 µM
NCI-H522 lung
  TGI: 21.9 µM
SK-MEL-5 melanoma
  TGI: 26.6 µM
LXFL 529 NSCLC
  TGI: 18.6 µM
MOLT-4 leukemia
  TGI: > 100 µM
SF-268 CNS
  TGI: 28.8 µM
LOX IMVI melanoma
  TGI: 27.7 µM
A549 NSCLC
  TGI: 37.7 µM
NCI-H460 lung
  TGI: 37.6 µM
OVCAR-5 ovarian
  TGI: 48.7 µM
HCT-116 colon
  TGI: 27.8 µM
RXF-631 renal
  TGI: 48.4 µM
M19-MEL melanoma
  TGI: > 100 µM
DMS 114 small cell lung
  TGI: 14.3 µM
ACHN renal
  TGI: 28.5 µM
SF-295 CNS
  TGI: 42.2 µM
OVCAR-3 ovarian
  TGI: 26.8 µM
HT29 colon
  TGI: 43.6 µM
NCI-H23 lung
  TGI: 31.2 µM
SNB-75 CNS
  TGI: 42.2 µM
SW-620 colon
  TGI: 62.1 µM
A498 renal
  TGI: 86.9 µM
COLO 205 colon
  TGI: 32.4 µM
SK-OV-3 ovarian
  TGI: > 100 µM
HCT-15 colon
  TGI: 41.3 µM
SNB-19 CNS
  TGI: 53.8 µM
SR leukemia
  TGI: > 100 µM
XF 498 CNS
  TGI: 34.7 µM
TK-10 renal
  TGI: 30.1 µM
EKVX NSCLC
  TGI: 28.9 µM
